Data on 22 molecules can be found in patent US11773078B2, “Furin inhibitors” (Glaxosmithkline Intellectual Property Development Limited, priority 2018, dated 2023).

Structures can show the parent of a compound that is named as a salt.

For assay [1], the target named is T1, Furin (108-574-Tev-Flag-His) enzyme (Homo sapiens, UniProt P09958).
T1 construct: Furin (108-574-Tev-Flag-His) enzyme was expressed and purified from CHO cells; TEV cleavage site (C); FLAG (C); His (C); made in house; host or cells: CHO cells
The assay can be described thus: Furin enzyme assay. The assay is classed as biochemical. The conditions noted are these: for IC50: read-out: furin enzyme pIC50 (converted). Put shortly: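 CHO-expressed, purified furin construct at 40 pM in 100 mM HEPES pH7.5, 1 mM CaCl2, 0.005% Triton X-100. Eleven-point 1:3 series, 0.00017–10 μM final, incubated 2 h at room temperature and read on Envision. pXC50 from four-parameter fit.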

The target in assay [2] is T2, furin (endogenous protease) in U20S cells (Homo sapiens, UniProt P09958).
T2 construct: the endogenous protease cleaves GFP; endogenous in cells; host or cells: U2OS cells transduced with a BacMam reporter
The assay is described as follows: Furin cell-based assay (image-based, Golgi-targeted GFP with BMP10 furin/PCSK cleavage site).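 Note: Read-out is mean GFP fluorescence of Golgi puncta per cell by high-content imaging, retained when furin inhibited, over an eleven-point 0.00017–10 µM series, four-parameter fit.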 The conditions noted are these: 24-hour incubation, read-out: furin golgi cell pXC50 (converted).

T1 sequence (P09958 108-574): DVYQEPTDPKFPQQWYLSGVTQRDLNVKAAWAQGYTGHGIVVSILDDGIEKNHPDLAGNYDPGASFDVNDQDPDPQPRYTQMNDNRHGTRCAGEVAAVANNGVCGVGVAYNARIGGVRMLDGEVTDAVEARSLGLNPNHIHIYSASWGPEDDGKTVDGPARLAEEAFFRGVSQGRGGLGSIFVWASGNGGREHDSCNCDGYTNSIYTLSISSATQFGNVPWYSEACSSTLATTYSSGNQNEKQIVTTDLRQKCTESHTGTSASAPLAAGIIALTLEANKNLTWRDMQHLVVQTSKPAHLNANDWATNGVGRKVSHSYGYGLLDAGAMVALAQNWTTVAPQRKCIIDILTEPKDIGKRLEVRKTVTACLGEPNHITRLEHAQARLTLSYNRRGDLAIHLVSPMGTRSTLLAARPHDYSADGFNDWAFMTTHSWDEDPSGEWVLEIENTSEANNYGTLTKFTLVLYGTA
T2 sequence (P09958 108-794): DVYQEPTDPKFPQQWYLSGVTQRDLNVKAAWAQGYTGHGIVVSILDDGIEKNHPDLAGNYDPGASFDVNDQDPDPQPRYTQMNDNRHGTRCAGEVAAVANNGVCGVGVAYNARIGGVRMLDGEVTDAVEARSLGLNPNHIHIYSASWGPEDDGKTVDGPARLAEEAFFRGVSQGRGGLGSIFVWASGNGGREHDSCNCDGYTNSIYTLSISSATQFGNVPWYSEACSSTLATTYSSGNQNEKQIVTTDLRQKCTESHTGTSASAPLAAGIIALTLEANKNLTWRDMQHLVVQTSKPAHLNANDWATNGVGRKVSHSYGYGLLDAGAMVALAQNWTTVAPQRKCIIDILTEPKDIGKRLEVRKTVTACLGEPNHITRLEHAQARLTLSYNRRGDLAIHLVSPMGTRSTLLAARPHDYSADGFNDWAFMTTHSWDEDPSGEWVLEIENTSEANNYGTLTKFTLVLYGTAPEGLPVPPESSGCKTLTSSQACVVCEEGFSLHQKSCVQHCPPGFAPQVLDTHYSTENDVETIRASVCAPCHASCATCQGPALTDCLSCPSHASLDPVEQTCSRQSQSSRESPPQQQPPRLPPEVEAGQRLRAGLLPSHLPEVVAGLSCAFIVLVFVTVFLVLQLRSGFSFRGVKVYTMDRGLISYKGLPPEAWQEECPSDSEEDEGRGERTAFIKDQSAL

As to `COC(=O)NCC1CCN(Cc2cc(Oc3cnc(N4CC5CCC(C4)N5CCC(=O)O)nc3)nc(-c3cc(Cl)cc(Cl)c3)c2)CC1` [Example 56, 3-(3-(5-((6-(3,5-dichlorophenyl)-4-((4-(((methoxycarbonyl)amino)methyl)piperidin-1-yl)methyl)pyridin-2-yl)oxy)pyrimidin-2-yl)-3,8-diazabicyclo[3.2.1]octan-8-yl)propanoic acid], the IC50 in assay [1] was 0.0316 nM. The EC50 in assay [2] was 5.01 nM.

Turning to `CC(CCN1CCN(c2ncc(Oc3cc(CN4CCC(CCO)CC4)cc(-c4cc(Cl)cc(Cl)c4)n3)cn2)CC1)C(=O)O` (centres unmarked) [Example 57, 4-(4-(5-((6-(3,5-dichlorophenyl)-4-((4-(2-hydroxyethyl)piperidin-1-yl)methyl)pyridin-2-yl)oxy)pyrimidin-2-yl)piperazin-1-yl)-2-methylbutanoic acid], in assay [1], the “furin enzyme pIC50” value is 10.3. Moreover, the EC50 in assay [2] was 10 nM.

As to `O=C(O)CCN1CCN(c2ccc(Oc3cc(CN4CCC(CNC(=O)C5CC5)CC4)cc(-c4cc(Cl)cc(Cl)c4)n3)cn2)CC1` [Example 58, 3-(4-(5-((4-((4-(cyclopropanecarboxamidomethyl)piperidin-1-yl)methyl)-6-(3,5-dichlorophenyl)pyridin-2-yl)oxy)pyridin-2-yl)piperazin-1-yl)propanoic acid], in assay [1], the “furin enzyme pIC50” value was 9.2. For the same molecule, the EC50 in assay [2] was 15.8 nM.

As to `CCC(=O)NCC1CCN(Cc2cc(Oc3cnc(N4CCN(CCC(C)C(=O)O)CC4)nc3)nc(-c3cc(Cl)cc(Cl)c3)c2)CC1` (centres unmarked) [Example 59, 4-(4-(5-((6-(3,5-dichlorophenyl)-4-((4-(propionamidomethyl)piperidin-1-yl)methyl)pyridin-2-yl)oxy)pyrimidin-2-yl)piperazin-1-yl)-2-methylbutanoic acid], the “furin enzyme pIC50” value in assay [1] amounted to 8.9. For the same molecule, the EC50 in assay [2] is 6.31 nM.

In the case of `CC(O)CCN1CCN(c2ncc(Oc3cc(CN4CCC(F)CC4)cc(-c4cc(Cl)cc(Cl)c4)n3)cn2)CC1` (centres unmarked) [Example 60, 4-(4-(5-((6-(3,5-dichlorophenyl)-4-((4-fluoropiperidin-1-yl)methyl)pyridin-2-yl)oxy)pyrimidin-2-yl)piperazin-1-yl)butan-2-ol], the “furin enzyme pIC50” value in assay [1] was 7.6. The EC50 in assay [2] was 15.8 nM.

As to `CC(=O)NCC1CCN(Cc2cc(Oc3cnc(N4CCN(CCC(=O)O)CC4)nc3)nc(-c3cc(Cl)cc(C(F)F)c3)c2)CC1` [Example 61, 3-(4-(5-((4-((4-(acetamidomethyl)piperidin-1-yl)methyl)-6-(3-chloro-5-(difluoromethyl)phenyl)pyridin-2-yl)oxy)pyrimidin-2-yl)piperazin-1-yl)propanoic acid], the “furin enzyme pIC50” value in assay [1] is reported as 9.2. The EC50 in assay [2] is 158 nM.

For the molecule `COC(=O)NCC1CCN(Cc2cc(Oc3cnc(N4CCN(C)CC4)nc3)nc(-c3cc(Cl)cc(Cl)c3)c2)CC1` [Example 63, Methyl ((1-1(2-(3,5-dichlorophenyl)-6-((2-(4-methylpiperazin-1-yl)pyrimidin-5-yl)oxy)pyridin-4-yl)methyl)piperidin-4-yl)methyl)carbamate, 4 hydrochloride], the “furin enzyme pIC50” value in assay [1] is 10.8. In assay [2], the EC50 was 7.94 nM.

For `CC(=O)NCC1CCN(Cc2cc(Oc3cnc(N4CCN(C)CC4)nc3)nc(-c3cc(Cl)cc(Cl)c3)c2)CC1` [Example 64, N-((1-((2-(3,5-dichlorophenyl)-6-((2-(4-methylpiperazin-1-yl)pyrimidin-5-yl)oxy)pyridin-4-yl)methyl)piperidin-4-yl)methyl)acetamide], the “furin enzyme pIC50” value in assay [1] worked out at 9.1. In assay [2], the EC50 is 10 nM.

Consider `COC(=O)NCC1CCN(Cc2cc(Oc3ccc(N4CCN(C)CC4)nc3)nc(-c3cc(Cl)cc(Cl)c3)c2)CC1` [Example 65, methyl ((1-((2-(3,5-dichlorophenyl)-6-((6-(4-methylpiperazin-1-yl)pyridin-3-yl)oxy)pyridin-4-yl)methyl)piperidin-4-yl)methyl)carbamate], for which the “furin enzyme pIC50” value in assay [1] is on record as 8.7. The EC50 in assay [2] was 20 nM.

Take `CNC(=O)OCC1CCN(Cc2cc(Oc3cnc(N4CCN(C)CC4)nc3)nc(-c3cc(Cl)cc(Cl)c3)c2)CC1` [Example 66, (1-((2-(3,5-dichlorophenyl)-6-((2-(4-methylpiperazin-1-yl)pyrimidin-5-yl)oxy)pyridin-4-yl)methyl)piperidin-4-yl)methyl methylcarbamate]: the IC50 in assay [1] was 1.58 nM. The EC50 in assay [2] was 7.94 nM.

As to `CNC(=O)OCC1CCN(Cc2cc(Oc3ccc(N4CCN(C)CC4)nc3)nc(-c3cc(Cl)cc(Cl)c3)c2)CC1` [Example 67, (1-((2-(3,5-dichlorophenyl)-6-((6-(4-methylpiperazin-1-yl)pyridin-3-yl)oxy)pyridin-4-yl)methyl)piperidin-4-yl)methyl methylcarbamate], the “furin enzyme pIC50” value in assay [1] amounted to 10.4. The EC50 in assay [2] is 12.6 nM.

Regarding `CC(=O)NCC1CCN(Cc2cc(Oc3cnc(N4CCN(C)CC4)nc3)cc(-c3cc(Cl)cc(Cl)c3)c2)CC1` [Example 68, N-((1-((3′,5′-dichloro-5-((2-(4-methylpiperazin-1-yl)pyrimidin-5-yl)oxy)-[1,1′-biphenyl]-3-yl)methyl)piperidin-4-yl)methyl)acetamide], the “furin enzyme pIC50” value in assay [1] is listed as 9.6. For the same molecule, the EC50 in assay [2] is 12.6 nM.

Turning to `CNC(=O)NCC1CCN(Cc2cc(Oc3ccc(N4CCN(C)CC4)nc3)nc(-c3cc(Cl)cc(Cl)c3)c2)CC1` [Example 69, 1-((1-((2-(3,5-dichlorophenyl)-6-((6-(4-methylpiperazin-1-yl)pyridin-3-yl)oxy)pyridin-4-yl)methyl)piperidin-4-yl)methyl)-3-methylurea], the “furin enzyme pIC50” value in assay [1] worked out at 9.1. In addition, the EC50 in assay [2] is 5.01 nM.

In the case of `CNC(=O)NCC1CCN(Cc2cc(Oc3cnc(N4CCN(C)CC4)nc3)nc(-c3cc(Cl)cc(Cl)c3)c2)CC1` [Example 70, 1-((1-((2-(3,5-dichlorophenyl)-6-((2-(4-methylpiperazin-1-yl)pyrimidin-5-yl)oxy)pyridin-4-yl)methyl)piperidin-4-yl)methyl)-3-methylurea], in assay [1], the IC50 was 0.0316 nM. Further, in assay [2], the EC50 was 3.98 nM.

Take `CC(=O)NCC1CCN(Cc2cc(Oc3cnc(N4CC5CCC(C4)N5C)nc3)nc(-c3cc(Cl)cc(Cl)c3)c2)CC1` [Example 71, N-((1-((2-(3,5-dichlorophenyl)-6-((2-(8-methyl-3,8-diazabicyclo[3.2.1]octan-3-yl)pyrimidin-5-yl)oxy)pyridin-4-yl)methyl)piperidin-4-yl)methyl)acetamide]: the IC50 in assay [1] is 0.2 nM. Further, in assay [2], the EC50 is 1.58 nM.

Turning to `CN1CCN(c2ncc(Oc3cc(CN4CCC(Cc5nnn[nH]5)CC4)cc(-c4cc(Cl)cc(Cl)c4)n3)cn2)CC1` [Example 72, 5-((4-((4-((1H-tetrazol-5-yl)methyl)piperidin-1-yl)methyl)-6-(3,5-dichlorophenyl)pyridin-2-yl)oxy)-2-(4-methylpiperazin-1-yl)pyrimidine], the “furin enzyme pIC50” value in assay [1] is given as 8.8. Besides, the EC50 in assay [2] was 10 nM.

As for `CNC(=O)OCC1CCN(Cc2cc(Oc3cnc(N4CCNCC4)nc3)nc(-c3cc(Cl)cc(Cl)c3)c2)CC1` [Example 73, (1-((2-(3,5-Dichlorophenyl)-6-((2-(piperazin-1-yl)pyrimidin-5-yl)oxy)pyridin-4-yl)methyl)piperidin-4-yl)methyl methylcarbamate], in assay [1], the “furin enzyme pIC50” value is listed as 8.9. Moreover, the EC50 in assay [2] is 6.31 nM.

In the case of `CNC(=O)OCC1CCN(Cc2cc(Oc3ccc(N4CCNCC4)nc3)nc(-c3cc(Cl)cc(Cl)c3)c2)CC1` [Example 74, (1-((2-(3,5-Dichlorophenyl)-6-((6-(piperazin-1-yl)pyridin-3-yl)oxy)pyridin-4-yl)methyl)piperidin-4-yl)methyl methylcarbamate, 4 hydrochloride], the “furin enzyme pIC50” value in assay [1] amounted to 8.4. The EC50 in assay [2] was 6.31 nM.

`CNC(=O)NCC1CCN(Cc2cc(Oc3cnc(N4CCNCC4)nc3)nc(-c3cc(Cl)cc(Cl)c3)c2)CC1` [Example 75, 1-((1-((2-(3,5-Dichlorophenyl)-6-((2-(piperazin-1-yl)pyrimidin-5-yl)oxy)pyridin-4-yl)methyl)piperidin-4-yl)methyl)-3-methylurea, 4 hydrochloride]: in assay [1], the “furin enzyme pIC50” value is on record as 9.1. The EC50 in assay [2] was 3.16 nM.

As for `COC(=O)NCC1CCN(Cc2cc(Oc3ccc(N4CCNCC4)nc3)nc(-c3cc(Cl)cc(Cl)c3)c2)CC1` [Example 76, Methyl 1(1-((2-(3,5-dichlorophenyl)-6-((6-(piperazin-1-yl)pyridin-3-yl)oxy)pyridin-4-yl)methyl)piperidin-4-yl)methyl)carbamate, 4 hydrochloride], the “furin enzyme pIC50” value in assay [1] was 8.4. In addition, in assay [2], the EC50 was 10 nM.

With `CNC(=O)OCC1CCN(Cc2cc(Oc3ccc(N4CCN(CCC(=O)O)CC4)nc3)nc(-c3cc(Cl)cc(Cl)c3)c2)CC1` [Example 77, 3-(4-(5-((6-(3,5-Dichlorophenyl)-4-((4-(((methylcarbamoyl)oxy)methyl)piperidin-1-yl)methyl)pyridin-2-yl)oxy)pyridin-2-yl)piperazin-1-yl)propanoic acid, 4 hydrochloride], the “furin enzyme pIC50” value in assay [1] was found to be 9.1. Further, the EC50 in assay [2] was 63.1 nM.

As to `NC(=O)CCN1CCN(Cc2cc(Oc3cnc(N4CCN(CCC(=O)O)CC4)nc3)nc(-c3cc(Cl)cc(Cl)c3)c2)CC1` [Example 78, 3-(4-(5-((4-((4-(3-Amino-3-oxopropyl)piperazin-1-yl)methyl)-6-(3,5-dichlorophenyl)pyridin-2-yl)oxy)pyrimidin-2-yl)piperazin-1-yl)propanoic acid], the “furin enzyme pIC50” value in assay [1] is on record as 8. Also, the EC50 in assay [2] is 63.1 nM.
